In patent US5608084A, “Lactones with antioxidising and hypolipidaemic activity useful in the therapy of the atherosclerosis” (priority 1994, dated 1997):

What was measured:
[1] = test system: B-100 apolipoprotein; assay: Fragmentation of B-100 apolipoprotein on SDS-PAGE (oxidative modification of LDL); format: biochemical, human; settings: 10 μM
Text: (§1) The determination of the melting point has been carried out by means of a capillary melting point apparatus Electrothermal, without any correction. The I.R. spectrum has been obtained by means of a Perkin-Elmer rood. 963/G spectrophotometer generally, when not otherwise specified, preparing the specimen in potassium bromide and recording the spectrum between 4000 and 600 nm. […] The mass spectrum has been recorded by using a VG 7070E mass spectrometer, at a 70 eV ionization voltage and with a 6 Kvolt acceleration voltage. […] Chem., 43, 2923, (1978). […] The antioxidant activity has been evaluated through the capability of some lactones of formula I to prevent and/or delay the oxidative modification of the lipoproteins (LDL), caused by a chemical method by incubating native LDL with cupric ions, according to the method described by Steinbrecher U. P. in J. Biol. Chem., 262, 3603-3608, (1987). The evaluation of the oxidation degree of the LDL through the monitoring of the concentration of aldehydes derived from the degradation of the lipidic peroxides and the observation of the modifications of the B-100 apolipoprotein represent the used experimental approach. The antioxidant activity of the lactones has been expressed in terms of duration of the latency period that represents a parameter of the resistance to the oxidation of the LDL. The LDL have been isolated from the human plasma obtained from blood collected, in the presence of EDTA, from healty volunteers fasting from 8 hours according to the method described by Havel H. in J. Clin. Invest., 34, 1345-1353, (1955). The solution, dialyzed in Visking-Serva dialysis tubes at 4° C. for 72 hours in phosphate buffer (PBS) added with EDTA (0.24 mM), has been filtered through a membrane with 0.45μ porosity (Millex HV Filters) and the proteic concentration has been determined according to the method described by Lowry O. et al. in J. Biol. Chem., 193, 265-275, (1951). The solution has been diluted with PBS-EDTA at a concentration of 500 μg protein/ml and the obtained LDL have been incubated at 42° C. for 45 minutes in presence of the lactones solubilized in ethanol (1.7 μl/ml LDL). At the end of the incubation the solutions have been placed on ice for 45 minutes and dialyzed at 4° C. for 36 hours in PBS. The oxidation of the LDL has been carried out with 5 μM cupric sulfate at 37° C. and stopped at the experimental times by cooling at 4° C. and adding 0.24 mM of EDTA. The solutions of LDL have been kept at 4° C. and sheltered from light during the experimental procedure. […] 52, (1978).
The inhibition of the oxidative process has been evaluated also by means of the study of the fragmentation of the B-100 apolipoprotein through the electrophoretic analysis on polyacrylamide gel in presence of sodium dodecylsulfate (SDS-PAGE), according to the method described by Laemmli U. K., in Nature, 227, 680, (1970). The quantitative evaluation of the disappearance of the B-100 apolipoprotein has been carried out by densitometric unidimensional measurement of the absorbance at λ=633nm, on an electrophoretic plate 13.5 cm long, after colouring with Coomassie Brillant Blue. The reagents used for the preparation and coloration of the gels, the reference standard (SDS-PAGE standards Broad Range--Cat. no. 161-0317), the gradient former (gradient former Bio-Rad Mod. 385) and the electrophoretic cell (Protean II) are Bio-Rad products; the feeder is a LKB Pharmacia Mod. 2197, the densitometer is a Pharmacia LKB Mod. 2222-020 Ultrascan XL with integrators LKB 2220 and LKB 2190 GelScan Software Package.

[2] = test system: B-100 apolipoprotein; assay: Relative electrophoretic mobility of oxidized LDL on agarose gel (surface-negative charge of B-100 apolipoprotein); format: biochemical, human; settings: 10 μM; for REM (%) at 180': 180 minutes; for REM (%) at 180' / REM (%) at 360': native LDL = 0, copper-oxidized LDL with ethanol at 360 minutes = 100; for REM (%) at 360': 360 minutes
Text: as §1
The inhibition of the oxidative process has also been qualitatively studied through the evaluation of the modification of the surface-negative charge of the B-100 apolipoprotein by electrophoretic analysis on agarose gel, by using the method described in the kit "Titan gel Multi-slot lipo-17 electrophoresis system" (Cat. no. 3095), manufactured by Helena Laboratories.
The Bio-Phoresis Horizontal Electrophoresis Cell Bio-Rad (Cat. no. 1702900) has been used as electrophoretic cell. The modification of the surface-negative charge of the B-100 apolipoprotein, caused by the oxidation of the LDL, produces an increase of the anionic electrophoretic mobility. Therefore the evaluation of the varying of this electrophoretic datum, mobility in presence of antioxidant substances, represents an indirect measure of the antioxidant capabilities of the claimed compounds as reported by Vanderyse L. et al. in Atherosclerosis, 97, 187-199, (1992). […] The migration of the native LDL is taken as a reference equal to 0 (no electrophoretic migration), while the migration of the band of the copper-oxidized LDL at the time of 360 minutes, only in presence of ethanol, is taken as reference equal to 100.

For CC(C)(Sc1cc(C(C)(C)C)c(O)c(C(C)(C)C)c1)Sc1cc(C(C)(C)C)c(O)c(C(C)(C)C)c1 [Probucol, reference compound], the “Area of the B-100 apolipoprotein peak” value ([1]; 0 minutes) was 2.7 AU/mm, the “Area of the B-100 apolipoprotein peak” value ([1]; 60 minutes) was 1.8 AU/mm and the “Area of the B-100 apolipoprotein peak” value ([1]; 90 minutes) was 1.6 AU/mm. The “Area of the B-100 apolipoprotein peak” value ([1]; 120 minutes) was 0.9 AU/mm, the “Area of the B-100 apolipoprotein peak” value ([1]; 150 minutes) was 0.9 AU/mm and the “Area of the B-100 apolipoprotein peak” value ([1]; 180 minutes) was 0.6 AU/mm. The “Area of the B-100 apolipoprotein peak” value ([1]; 360 minutes) was 0.3 AU/mm, the “REM (%) at 180'” value [2] was 40% and the “REM (%) at 360'” value [2] was 100%.
With CCC1CCc2c(C)c(O)c(C)c(C)c2OCCCC(C)(C)C(=O)O1 (centres unmarked) [Example 6, 9-Ethyl-14-hydroxy-6,6,13,15,16-pentamethyl-2,8-dioxabicyclo[10.4.0]hexadec-12,14,16-trien-7-one] the “Area of the B-100 apolipoprotein peak” value ([1]; 0 minutes) was 2.5 AU/mm, the “Area of the B-100 apolipoprotein peak” value ([1]; 60 minutes) was 2.3 AU/mm and the “Area of the B-100 apolipoprotein peak” value ([1]; 90 minutes) was 2.1 AU/mm. The “Area of the B-100 apolipoprotein peak” value ([1]; 120 minutes) was 2.0 AU/mm, the “Area of the B-100 apolipoprotein peak” value ([1]; 150 minutes) was 1.7 AU/mm and the “Area of the B-100 apolipoprotein peak” value ([1]; 180 minutes) was 1.6 AU/mm. The “Area of the B-100 apolipoprotein peak” value ([1]; 360 minutes) was 1.6 AU/mm, the “lowering of electrophoretic mobility of LDL compared with probucol” value [2] was “remarkably more effective than probucol” and the “REM (%) at 180'” value [2] was 15%. For the same compound, the “REM (%) at 360'” value [2] was 30%.
With Cc1c(C)c2c(c(C)c1O)CCC(C)OC(=O)C(C)(C)CCCO2 (centres unmarked) [Example 3, 6,6,9,13,15,16-Hexamethyl-14-hydroxy-2,8-dioxabicyclo[10.4.0]hexadec-12,14,16-trien-7-one] the “Area of the B-100 apolipoprotein peak” value ([1]; 0 minutes) was 2.2 AU/mm, the “Area of the B-100 apolipoprotein peak” value ([1]; 60 minutes) was 2.0 AU/mm and the “Area of the B-100 apolipoprotein peak” value ([1]; 90 minutes) was 1.9 AU/mm. The “Area of the B-100 apolipoprotein peak” value ([1]; 120 minutes) was 1.6 AU/mm, the “Area of the B-100 apolipoprotein peak” value ([1]; 150 minutes) was 1.5 AU/mm and the “Area of the B-100 apolipoprotein peak” value ([1]; 180 minutes) was 1.5 AU/mm. The “Area of the B-100 apolipoprotein peak” value ([1]; 360 minutes) was 1.5 AU/mm, the “lowering of electrophoretic mobility of LDL compared with probucol” value [2] was “remarkably more effective than probucol” and the “REM (%) at 180'” value [2] was 15%. For the same compound, the “REM (%) at 360'” value [2] was 30%.
